Measured values reported in US12428408B2, “Fused heterocyclic mescaline derivatives” (Enveric Biosciences Canada Inc., priority 2022, dated 2025).
pKi: −log10 of the molar value. Like-named read-outs stand apart in the source and are kept apart here.

How the values were obtained:
5-HT1D (r) = molecular target: T1, 5-HT1D (r) (Rattus norvegicus, UniProt P28565); assay: Competition assay to measure binding affinity at 5-HT1D receptor; settings: test ligand 10 μM; [3H]serotonin 1 nM
T1 construct: host or cells: CHO cells

D3 (h) = molecular target: T2, D3 (h) (Homo sapiens, UniProt P35462); assay: Competition assay to measure binding affinity at D3 receptor; settings: test ligand 10 μM; [3H]methylspiperone […]
T2 construct: host or cells: CHO cells

alpha2A (h) = molecular target: T3, alpha2A (h) (Homo sapiens, UniProt P08913); assay: Competition assay to measure binding affinity at alpha2A receptor; settings: test ligand 10 μM; [3H]RX 821002 1 nM; read-out: α-2A, percent of control-specific binding
T3 construct: host or cells: CHO cells
T3 sequence (P08913 1-465): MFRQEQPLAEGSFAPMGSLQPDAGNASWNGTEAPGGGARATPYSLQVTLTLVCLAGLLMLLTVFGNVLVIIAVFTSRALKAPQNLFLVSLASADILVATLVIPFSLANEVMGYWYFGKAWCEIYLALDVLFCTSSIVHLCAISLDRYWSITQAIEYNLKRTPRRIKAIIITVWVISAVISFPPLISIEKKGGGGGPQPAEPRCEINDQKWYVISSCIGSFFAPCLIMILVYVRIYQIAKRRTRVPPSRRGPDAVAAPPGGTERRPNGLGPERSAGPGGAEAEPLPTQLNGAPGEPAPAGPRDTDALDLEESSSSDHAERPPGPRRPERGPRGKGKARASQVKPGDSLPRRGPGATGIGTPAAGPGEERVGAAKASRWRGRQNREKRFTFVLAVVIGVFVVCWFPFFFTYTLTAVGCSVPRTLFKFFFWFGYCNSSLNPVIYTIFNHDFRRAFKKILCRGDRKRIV

5-HT1A receptor [1] = molecular target: T4, 5-HT1A receptor (Homo sapiens, UniProt P08908); assay: Functional 5-HT1A receptor cAMP assay in CHO-K1/5-HT1A/Gα15 cells; type: cell-based; settings: +5-HT1A cells, 4 μM forskolin, FIGS. 37B-37H
T4 construct: purchased Perkin Elmer 6110501400UA
T4 sequence (P08908 1-422): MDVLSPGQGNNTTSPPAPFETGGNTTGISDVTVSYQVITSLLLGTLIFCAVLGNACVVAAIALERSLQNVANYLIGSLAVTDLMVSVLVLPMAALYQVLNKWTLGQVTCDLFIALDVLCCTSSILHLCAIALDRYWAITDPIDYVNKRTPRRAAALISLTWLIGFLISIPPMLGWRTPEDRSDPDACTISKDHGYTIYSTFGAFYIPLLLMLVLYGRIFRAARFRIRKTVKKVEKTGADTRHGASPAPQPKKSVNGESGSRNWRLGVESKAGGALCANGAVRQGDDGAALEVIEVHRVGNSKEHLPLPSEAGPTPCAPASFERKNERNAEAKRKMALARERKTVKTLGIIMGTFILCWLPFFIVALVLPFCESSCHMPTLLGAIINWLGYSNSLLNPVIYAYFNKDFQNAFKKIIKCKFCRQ

NET (h) = molecular target: T5, NET (h) (Homo sapiens, UniProt P23975); assay: Competition assay to measure binding affinity at norepinephrine transporter (NET); settings: test ligand 10 μM; [3H]nisoxetine 1 nM
T5 construct: host or cells: CHO cells

5-HT1B (h) = molecular target: T6, 5-HT1B (h) (Homo sapiens, UniProt P28222); assay: Competition assay to measure binding affinity at 5-HT1B receptor; settings: test ligand 10 μM; [3H]GR125743 1 nM
T6 construct: host or cells: Chem-1 (RBL) cells

MT1 (ML1A) (h) = molecular target: T7, MT1 (ML1A) (h) (Homo sapiens, UniProt P48039); assay: Competition assay to measure binding affinity at MT1 receptor; settings: test ligand 10 μM; [125I]2-iodomelatonin 0.01 nM
T7 construct: host or cells: CHO cells

D2 (h) = molecular target: T8, D2 (h) (Homo sapiens, UniProt P14416); assay: Competition assay to measure binding affinity at D2L receptor; settings: test ligand 10 μM; [3H]methylspiperone 0.3 nM
T8 construct: host or cells: HEK-293 cells

DAT (h) = molecular target: T9, DAT (h) (Homo sapiens, UniProt Q01959); assay: Competition assay to measure binding affinity at dopamine transporter (DAT); settings: test ligand 10 μM; [3H]BTCP 4 nM
T9 construct: host or cells: CHO cells

5-HT2C (h) = molecular target: T10, 5-HT2C (h) (Homo sapiens, UniProt P28335); assay: Competition assay to measure binding affinity at 5-HT2C receptor; settings: test ligand 10 μM; [125I](±)DOI 0.1 nM
T10 construct: host or cells: HEK-293 cells
T10 sequence (P28335 33-458): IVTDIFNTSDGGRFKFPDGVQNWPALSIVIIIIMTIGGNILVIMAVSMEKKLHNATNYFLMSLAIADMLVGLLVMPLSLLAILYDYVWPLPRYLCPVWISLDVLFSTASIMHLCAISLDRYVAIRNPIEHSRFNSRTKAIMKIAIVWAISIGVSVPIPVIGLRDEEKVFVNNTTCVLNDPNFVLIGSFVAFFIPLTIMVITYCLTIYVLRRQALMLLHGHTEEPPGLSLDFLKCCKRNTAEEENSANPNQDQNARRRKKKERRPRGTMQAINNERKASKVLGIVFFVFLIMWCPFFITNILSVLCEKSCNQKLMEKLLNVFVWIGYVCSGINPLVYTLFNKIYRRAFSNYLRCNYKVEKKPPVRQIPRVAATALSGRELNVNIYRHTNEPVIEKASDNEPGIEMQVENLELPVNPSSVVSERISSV

5-HT7 (h) = molecular target: T11, 5-HT7 (h) (Homo sapiens, UniProt P34969); assay: Competition assay to measure binding affinity at 5-HT7 receptor; settings: test ligand 10 μM; [3H]LSD 4 nM
T11 construct: host or cells: HEK-293 cells

[2] = molecular target: T12, human serotonin transporter (SERT) (Homo sapiens, UniProt P31645); assay: biochemical; type: binding
T12 construct: purchased PerkinElmer RBHSTM400UA

5-HT1A receptor [3] = molecular target: T4, 5-HT1A receptor; assay: 5-HT1A receptor radioligand competition assay (SPA); type: binding
5-HT2B (h) = molecular target: T13, 5-HT2B (h) (Homo sapiens, UniProt P41595); assay: Competition assay to measure binding affinity at 5-HT2B receptor; settings: test ligand 10 μM; [3H]mesulergine 2 nM
T13 construct: host or cells: CHO cells

5-HT2A receptor = 5-HT2A receptor (Homo sapiens, UniProt P28223); assay: 5-HT2A receptor radioligand competition assay (SPA)
[4] = competition with 0.5 nM 8-hydroxy-DPAT [3H], test compound 3 nM to 1 mM, read-out: 5-HT1A, Ki

Chain of 5-HT2A receptor (P28223 whole entry): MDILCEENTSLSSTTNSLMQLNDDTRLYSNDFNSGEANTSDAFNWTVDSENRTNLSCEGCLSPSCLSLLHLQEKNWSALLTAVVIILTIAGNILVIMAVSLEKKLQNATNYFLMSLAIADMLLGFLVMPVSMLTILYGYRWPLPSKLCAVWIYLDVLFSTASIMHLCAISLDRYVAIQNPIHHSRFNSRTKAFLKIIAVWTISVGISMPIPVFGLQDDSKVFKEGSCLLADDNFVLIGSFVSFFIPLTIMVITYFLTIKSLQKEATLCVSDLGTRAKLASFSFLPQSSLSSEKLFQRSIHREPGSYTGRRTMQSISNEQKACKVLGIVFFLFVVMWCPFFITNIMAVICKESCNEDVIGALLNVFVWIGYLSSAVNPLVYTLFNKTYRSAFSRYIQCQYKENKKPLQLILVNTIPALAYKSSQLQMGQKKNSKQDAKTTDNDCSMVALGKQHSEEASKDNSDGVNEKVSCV
T11 sequence (P34969 whole entry): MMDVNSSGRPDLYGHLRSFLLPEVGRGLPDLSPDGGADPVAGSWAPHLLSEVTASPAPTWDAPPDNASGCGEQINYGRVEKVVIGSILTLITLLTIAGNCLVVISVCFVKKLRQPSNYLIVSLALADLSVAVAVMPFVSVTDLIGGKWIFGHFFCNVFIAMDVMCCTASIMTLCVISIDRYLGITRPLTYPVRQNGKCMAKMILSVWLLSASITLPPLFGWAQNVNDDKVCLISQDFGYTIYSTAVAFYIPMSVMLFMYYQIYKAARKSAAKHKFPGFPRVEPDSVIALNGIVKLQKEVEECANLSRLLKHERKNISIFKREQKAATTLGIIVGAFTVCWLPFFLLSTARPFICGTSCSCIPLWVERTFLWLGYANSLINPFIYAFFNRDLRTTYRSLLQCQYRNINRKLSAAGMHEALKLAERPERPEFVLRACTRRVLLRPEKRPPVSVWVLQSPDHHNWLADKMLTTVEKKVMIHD
T8 sequence (P14416 whole entry): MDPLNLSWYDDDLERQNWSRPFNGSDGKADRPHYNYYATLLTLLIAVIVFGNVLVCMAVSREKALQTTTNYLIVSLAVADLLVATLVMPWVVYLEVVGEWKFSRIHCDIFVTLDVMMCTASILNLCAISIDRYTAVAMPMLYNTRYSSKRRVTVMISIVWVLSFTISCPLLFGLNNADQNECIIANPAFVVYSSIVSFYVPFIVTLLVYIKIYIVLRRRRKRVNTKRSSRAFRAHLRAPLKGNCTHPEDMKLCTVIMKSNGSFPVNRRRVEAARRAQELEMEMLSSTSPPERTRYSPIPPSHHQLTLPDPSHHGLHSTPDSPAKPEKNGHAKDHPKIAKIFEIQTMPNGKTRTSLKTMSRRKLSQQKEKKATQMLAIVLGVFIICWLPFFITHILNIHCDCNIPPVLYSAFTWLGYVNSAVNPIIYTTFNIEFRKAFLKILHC
T12 sequence (P31645 whole entry): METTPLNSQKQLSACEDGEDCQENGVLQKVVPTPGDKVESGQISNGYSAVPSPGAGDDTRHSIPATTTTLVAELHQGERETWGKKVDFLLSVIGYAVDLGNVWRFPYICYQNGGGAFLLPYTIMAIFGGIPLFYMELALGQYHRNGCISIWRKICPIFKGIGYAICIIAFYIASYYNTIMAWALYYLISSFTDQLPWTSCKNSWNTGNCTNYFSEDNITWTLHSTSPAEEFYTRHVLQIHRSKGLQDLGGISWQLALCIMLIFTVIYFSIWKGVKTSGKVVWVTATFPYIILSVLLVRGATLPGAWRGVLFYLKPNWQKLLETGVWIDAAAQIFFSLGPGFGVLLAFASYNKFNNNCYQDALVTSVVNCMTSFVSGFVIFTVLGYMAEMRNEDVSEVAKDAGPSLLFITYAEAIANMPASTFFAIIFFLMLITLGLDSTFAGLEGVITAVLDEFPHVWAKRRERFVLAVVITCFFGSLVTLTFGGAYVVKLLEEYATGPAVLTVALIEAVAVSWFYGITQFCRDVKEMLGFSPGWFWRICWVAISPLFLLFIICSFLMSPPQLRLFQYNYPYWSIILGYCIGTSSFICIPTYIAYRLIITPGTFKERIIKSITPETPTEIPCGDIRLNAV
T9 sequence (Q01959 whole entry): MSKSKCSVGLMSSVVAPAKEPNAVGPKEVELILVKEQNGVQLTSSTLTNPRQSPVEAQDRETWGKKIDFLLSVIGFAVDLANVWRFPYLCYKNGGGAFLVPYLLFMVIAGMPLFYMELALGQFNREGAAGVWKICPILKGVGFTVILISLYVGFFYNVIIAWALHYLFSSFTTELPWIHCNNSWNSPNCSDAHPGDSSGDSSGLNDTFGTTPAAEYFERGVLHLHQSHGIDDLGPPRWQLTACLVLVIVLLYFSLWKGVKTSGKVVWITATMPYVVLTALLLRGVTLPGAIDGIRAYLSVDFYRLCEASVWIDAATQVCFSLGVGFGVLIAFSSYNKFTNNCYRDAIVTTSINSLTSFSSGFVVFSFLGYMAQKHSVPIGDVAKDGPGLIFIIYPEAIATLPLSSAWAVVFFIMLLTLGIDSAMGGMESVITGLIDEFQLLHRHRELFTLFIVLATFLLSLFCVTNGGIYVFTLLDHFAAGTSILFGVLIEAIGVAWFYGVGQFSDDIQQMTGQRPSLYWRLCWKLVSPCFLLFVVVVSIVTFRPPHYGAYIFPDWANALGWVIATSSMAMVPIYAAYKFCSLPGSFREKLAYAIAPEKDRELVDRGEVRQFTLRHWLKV
T5 sequence (P23975 whole entry): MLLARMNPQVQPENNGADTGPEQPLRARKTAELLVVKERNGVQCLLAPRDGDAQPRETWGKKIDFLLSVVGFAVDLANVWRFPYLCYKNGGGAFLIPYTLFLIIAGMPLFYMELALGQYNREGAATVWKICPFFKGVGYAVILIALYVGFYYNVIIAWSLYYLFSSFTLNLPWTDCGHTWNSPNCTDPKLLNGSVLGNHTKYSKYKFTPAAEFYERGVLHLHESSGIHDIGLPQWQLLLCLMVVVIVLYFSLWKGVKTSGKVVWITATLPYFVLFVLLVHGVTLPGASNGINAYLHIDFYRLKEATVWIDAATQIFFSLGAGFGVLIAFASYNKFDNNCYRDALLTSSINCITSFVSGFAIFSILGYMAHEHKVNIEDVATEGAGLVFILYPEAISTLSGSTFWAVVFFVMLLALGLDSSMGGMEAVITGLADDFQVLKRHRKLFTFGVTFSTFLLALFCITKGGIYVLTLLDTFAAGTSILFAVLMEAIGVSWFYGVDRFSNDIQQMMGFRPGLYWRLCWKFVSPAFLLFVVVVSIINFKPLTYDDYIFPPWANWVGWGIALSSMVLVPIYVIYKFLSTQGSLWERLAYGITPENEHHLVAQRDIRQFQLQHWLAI
T2 sequence (P35462 whole entry): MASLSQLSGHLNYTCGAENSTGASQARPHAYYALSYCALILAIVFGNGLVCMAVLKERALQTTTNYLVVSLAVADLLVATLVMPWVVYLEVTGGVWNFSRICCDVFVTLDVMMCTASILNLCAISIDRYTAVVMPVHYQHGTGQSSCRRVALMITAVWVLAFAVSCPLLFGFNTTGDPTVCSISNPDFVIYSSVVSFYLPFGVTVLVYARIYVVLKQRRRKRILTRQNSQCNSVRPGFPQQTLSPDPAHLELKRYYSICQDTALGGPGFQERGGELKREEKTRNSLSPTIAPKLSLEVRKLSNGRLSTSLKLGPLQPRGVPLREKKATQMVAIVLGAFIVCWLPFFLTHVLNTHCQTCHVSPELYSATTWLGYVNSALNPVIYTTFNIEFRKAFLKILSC
T1 sequence (P28565 whole entry): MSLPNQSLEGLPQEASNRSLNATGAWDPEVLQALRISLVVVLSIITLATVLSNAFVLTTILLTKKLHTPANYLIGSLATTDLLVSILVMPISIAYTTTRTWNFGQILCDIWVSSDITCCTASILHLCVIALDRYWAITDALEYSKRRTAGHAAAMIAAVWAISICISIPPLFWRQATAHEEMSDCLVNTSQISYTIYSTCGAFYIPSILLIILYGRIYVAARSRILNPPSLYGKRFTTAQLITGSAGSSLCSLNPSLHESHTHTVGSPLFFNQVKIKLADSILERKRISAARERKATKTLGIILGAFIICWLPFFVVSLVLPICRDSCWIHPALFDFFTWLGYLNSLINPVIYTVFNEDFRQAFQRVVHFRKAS
T7 sequence (P48039 whole entry): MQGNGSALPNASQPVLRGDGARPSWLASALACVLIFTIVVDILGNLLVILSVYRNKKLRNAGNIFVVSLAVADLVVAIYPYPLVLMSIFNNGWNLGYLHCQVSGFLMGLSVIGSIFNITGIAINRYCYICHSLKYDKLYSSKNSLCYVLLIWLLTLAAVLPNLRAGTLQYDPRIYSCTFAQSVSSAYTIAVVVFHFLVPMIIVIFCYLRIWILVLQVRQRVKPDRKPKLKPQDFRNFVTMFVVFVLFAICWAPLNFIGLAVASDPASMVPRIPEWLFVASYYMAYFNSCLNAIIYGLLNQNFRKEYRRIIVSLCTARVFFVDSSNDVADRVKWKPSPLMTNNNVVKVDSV
T6 sequence (P28222 whole entry): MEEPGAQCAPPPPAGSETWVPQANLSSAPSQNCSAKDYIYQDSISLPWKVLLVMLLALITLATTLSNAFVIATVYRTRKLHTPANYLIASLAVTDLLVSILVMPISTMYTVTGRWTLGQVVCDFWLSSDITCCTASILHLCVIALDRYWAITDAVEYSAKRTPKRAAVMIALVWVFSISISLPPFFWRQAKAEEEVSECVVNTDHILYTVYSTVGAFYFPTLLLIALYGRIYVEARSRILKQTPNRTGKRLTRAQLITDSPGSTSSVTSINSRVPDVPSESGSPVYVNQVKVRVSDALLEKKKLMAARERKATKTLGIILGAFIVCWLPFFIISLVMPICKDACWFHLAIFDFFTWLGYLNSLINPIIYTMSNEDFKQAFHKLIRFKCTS

Row | Compound | HT1D, percent of control-specific binding (5-HT1D (r)) [%] | D3, percent of control-specific binding (D3 (h)) [%] | inhibition at 10 µM (alpha2A (h)) [%] | 5-HT1A receptor engagement (change in cAMP levels), in words (5-HT1A receptor [1]) | NET, percent of control-specific binding (NET (h)) [%] | HT1B, percent of control-specific binding (5-HT1B (h)) [%] | MT1, percent of control-specific binding (MT1 (ML1A) (h)) [%] | D2, percent of control-specific binding (D2 (h)) [%] | DAT, percent of control-specific binding (DAT (h)) [%] | HT2C, percent of control-specific binding (5-HT2C (h)) [%] | HT7, percent of control-specific binding (5-HT7 (h)) [%] | pKi [2] | pKi (5-HT1A receptor [3]; [4]) | HT2B, percent of control-specific binding (5-HT2B (h)) [%] | pKi (5-HT2A receptor) | pKi (5-HT1A receptor [3])
1 | NCCc1c[nH]c2ccc(O)cc12 [serotonin, reference compound] | 101 | 73 | 18 | reduction in cAMP levels | −3 | 97 | 7 | 15 | 8 | – | – | – | – | – | – | –
2 | CC(Cc1ccc2c(c1)OCO2)N1CC(NC(=O)OC(C)(C)C)C1 (centres unmarked) [A(IV)] | 13 | 84 | 75 | – | 15 | 15 | 3 | 37 | 20 | 69 | 79 | 4.30 | 5.80 | 94 | 4.82 | –
3 | CC(Cc1ccc2c(c1)OCO2)N1CCOCC1 (centres unmarked) [A(III)] | 0 | 9 | 32 | – | 0 | 0 | 0 | 12 | 9 | 3 | 3 | 4.58 | – | 13 | 4.38 | 4.41
4 | CC(Cc1ccc2c(c1)OCCO2)NCc1ccc2c(c1)OCO2 (centres unmarked) [A(XII)] | 24 | 58 | 66 | – | 69 | 0 | 6 | 26 | 92 | 31 | 51 | 5.62 | – | 86 | 4.59 | 5.92
5 | CC(Cc1ccc2c(c1)OCO2)NN(C)C (centres unmarked) [A(VIII)] | 0 | 18 | 8 | – | 2 | 0 | 33 | 12 | 38 | 79 | 17 | 4.65 | 4.71 | 67 | 5.47 | –
